According to the CheMixHub viscosity set:

Experiment: xn = mol fraction of the nth substance listed

ClCCl + ClCCCl
303.15 K, 101.3 kPa
Conditions | viscosity [mPa·s]
x2 = 0.0618 | 0.408
x2 = 0.1258 | 0.4242
x2 = 0.2132 | 0.4486
x2 = 0.3029 | 0.474
x2 = 0.419 | 0.5092
x2 = 0.5226 | 0.5436
x2 = 0.6033 | 0.5714
x2 = 0.7998 | 0.6445
x2 = 0.8933 | 0.6822
x2 = 0.9517 | 0.7068

CCNc1ccccc1 + Clc1ccccc1
viscosity [mPa·s], 101 kPa
Conditions | 303.15 K | 308.15 K
x1 = 0.0629 | 0.767 | 0.72
x1 = 0.1159 | 0.816 | 0.758
x1 = 0.1959 | 0.894 | 0.823
x1 = 0.2558 | 0.954 | 0.873
x1 = 0.3298 | 1.028 | 0.937
x1 = 0.3968 | 1.096 | 0.995
x1 = 0.4856 | 1.188 | 1.073
x1 = 0.5625 | 1.267 | 1.141
x1 = 0.6359 | 1.342 | 1.206
x1 = 0.7025 | 1.412 | 1.266
x1 = 0.7839 | 1.499 | 1.34
x1 = 0.8592 | 1.581 | 1.411
x1 = 0.9215 | 1.65 | 1.473

C1CCC2=[NH+]CCCN2CC1.c1c[n-]cn1 + O
Conditions | viscosity [mPa·s]
298.15 K, 100 kPa, x1 = 0.2994 | 42.65

CCC(=O)N(CC)CC + O
298.16 K, 101 kPa
Conditions | viscosity [mPa·s]
x2 = 0.0649 | 1.31
x2 = 0.1684 | 1.49
x2 = 0.2965 | 1.79
x2 = 0.4448 | 2.27
x2 = 0.5923 | 2.93
x2 = 0.7652 | 3.86
x2 = 0.8001 | 3.91
x2 = 0.8352 | 3.83
x2 = 0.8933 | 3.34
x2 = 0.9093 | 3.03

CCOC(N)=O + O
viscosity [mPa·s], 101.33 kPa
Conditions | x1 = 0.01112 | x1 = 0.02393 | x1 = 0.03411 | x1 = 0.0497 | x1 = 0.06189 | x1 = 0.07566 | x1 = 0.1253
293.15 K | 1.122 | 1.253 | 1.356 | 1.505 | 1.618 | 1.743 | 2.156
298.15 K | 0.9919 | 1.102 | 1.191 | 1.314 | 1.409 | 1.513 | 1.86

C[C@H]1COc2c(N3CCN(C)CC3)c(F)cc3c(=O)c(C(=O)O)cn1c23 + O
viscosity [mPa·s], 100 kPa
Conditions | 293.15 K | 298.15 K | 303.15 K | 308.15 K | 313.15 K
x1 = 0.00015 | 1.009 | 0.8934 | 0.8026 | 0.7256 | 0.6575
x1 = 0.000344 | 1.016 | 0.889 | 0.8085 | 0.7296 | 0.6617
x1 = 0.000425 | 1.019 | 0.9064 | 0.8134 | 0.7336 | 0.6673
